For test [1], the system named is Candida albicans. The experiment in a line: Binding affinity to Candida albicans MYA-2876 membrane at 2 mg/ml incubated for 15 mins on ice followed by 45 mins in room temperature by fluorescence microscopic analysis. Type of test: functional.
Test [2] deals with Candida albicans. The experiment in a line: Binding affinity to Candida albicans ATCC 90028 membrane at 2 mg/ml incubated for 15 mins on ice followed by 45 mins in room temperature by fluorescence microscopic analysis. Type of test: functional.

Activity calls are given as the source filed them. The rule behind the calls is not given here. Where a SMILES comes first, the peptide text is derived from it.

Regarding `N=C(N)NCCC[C@@H]1NC(=O)[C@H](CCCNC(=N)N)NC(=O)[C@H](Cc2c[nH]c3ccccc23)NC(=O)[C@H](Cc2c[nH]c3ccccc23)NC(=O)[C@H](CCCNC(=N)N)NC(=O)[C@H](Cc2ccccc2)NC(=O)[C@H](Cc2c[nH]cn2)NC1=O` (cyclo(FRWWRRH)), the result in the test with Candida albicans [1] and with Candida albicans [2] was Active.

The record behind these values is ChEMBL document CHEMBL2163265, “Antifungal peptides at membrane interaction” (Eur J Med Chem, 2012).
